Our source for the IC50 values is patent publication US9029544B2, “Tricyclic pyridine derivatives, medicaments containing such compounds, their use and process for their preparation” (Boehringer Ingelheim International GmbH, priority 2010, dated 2015).

This assay addresses T1, Recombinant human CETP (Homo sapiens, UniProt P11597).
T1 construct: made in house; host or cells: CHO cells (secreted into conditioned medium)
T1 sequence (P11597 18-493): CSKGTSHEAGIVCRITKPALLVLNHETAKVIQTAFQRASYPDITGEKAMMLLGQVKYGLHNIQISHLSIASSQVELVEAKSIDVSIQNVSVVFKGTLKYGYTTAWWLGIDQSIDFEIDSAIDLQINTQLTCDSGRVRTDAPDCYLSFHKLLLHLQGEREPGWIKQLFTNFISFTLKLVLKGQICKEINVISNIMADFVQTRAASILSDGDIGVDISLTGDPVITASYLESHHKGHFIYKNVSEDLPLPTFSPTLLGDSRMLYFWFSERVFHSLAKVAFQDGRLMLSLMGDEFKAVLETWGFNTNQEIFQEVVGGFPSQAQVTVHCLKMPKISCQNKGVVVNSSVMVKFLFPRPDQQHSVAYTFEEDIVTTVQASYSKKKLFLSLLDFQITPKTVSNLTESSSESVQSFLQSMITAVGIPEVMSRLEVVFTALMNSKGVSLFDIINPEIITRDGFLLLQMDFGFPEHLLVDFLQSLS
The experiment in a line: CETP in vitro assay (fluorometric assay, Roar Biomedical; cholesterol ester transfer from HDL to LDL). Conditions: recombinant human CETP from CHO cells; 3 hours at 37° C.; fluorescence 485/535 nm; compound concentrations between 1 nM and 30 μM; read-out: IC50 values for inhibition of CETP. In kind it is biochemical. Here is the method:
CETP inhibitory activity of compounds of the present invention can be determined in a fluorometric assay purchased from Roar Biomedical, Inc. (New York, N.Y., USA). […] Recombinant human CETP was partially purified from medium conditioned by CETP expressing CHO cells. In a 384 well format 2.5 μl of compound solution in DMSO was combined with 2 μl of donor solution, 2 μl of acceptor solution and 0.8 μl of recombinant human CETP solution in a total volume of 100 μl with assay buffer and incubated for 3 hours at 37° C. The fluorescence intensity was measured at excitation wavelength of 485 nm and emission wavelength of 535 nm. IC50 values are calculated from dose effect curves from compound concentrations between 1 nM and 30 μM.

On to `COC(C)(C)c1nc2c(c3c1[C@@H](c1ccc(C(F)(F)F)cc1)OC31CCOCC1)[C@@H](O)CC(C)(C)C2` [1(83), (3R,9S)-4-(2-methoxypropan-2-yl)-7,7-dimethyl-3-(4-(trifluoromethyl)phenyl)-2′,3′,5′,6,6′,7,8,9-octahydro-3H-spiro[furo[3,4-c]quinoline-1,4′-pyran]-9-ol], for which the IC50 came to 25 nM.
Consider `CC1(C)Cc2nc(C3CCOCC3)c3c(c2[C@@H](O)C1)C1(CCOCC1)O[C@@H]3c1ccc(C(C)(C)C)cc1` [1(70), (3R,9S)-3-(4-tert-butylphenyl)-7,7-dimethyl-4-(tetrahydro-2H-pyran-4-yl)-2′,3′,5′,6,6′,7,8,9-octahydro-3H-spiro[furo[3,4-c]quinoline-1,4′-pyran]-9-ol], for which the IC50 is 57 nM.
The value for `CC1(C)C[C@H](O)c2c(nc(C3CCOCC3)c3c2C2(CCOCC2)O[C@@H]3c2ccc(C(F)(F)F)cc2)[C@@H]1O` [4(11), (3R,6R,9S)-7,7-dimethyl-4-(tetrahydro-2H-pyran-4-yl)-3-(4-(trifluoromethyl)phenyl)-2′,3′,5′,6,6′,7,8,9-octahydro-3H-spiro[furo[3,4-c]quinoline-1,4′-pyran]-6,9-diol] was 255 nM.
The value for `CC(C)c1nc2c(c3c1[C@@H](c1ccc(C(F)(F)F)cc1)OC31CCOCC1)[C@@H](O)CC1(CCC1)[C@H]2O` [5(1), (3R,6R,9S)-4-isopropyl-7,7-(propan-1,3-diyl)-3-(4-(trifluoromethyl)phenyl)-2′,3′,5′,6,6′,7,8,9-octahydro-3H-spiro[furo[3,4-c]quinoline-1,4′-pyran]-6,9-diol] was 78 nM.
On to `N#Cc1cc([C@H]2OC3(CCOCC3)c3c2c(C2CCOCC2)nc2c3[C@@H](O)CC3(CCC3)[C@H]2O)ccc1C(F)(F)F` [4(14), 5-((3R,6R,9S)-6,9-dihydroxy-7,7-(propan-1,3-diyl)-4-(tetrahydro-2H-pyran-4-yl)-2′,3′,5′,6,6′,7,8,9-octahydro-3H-spiro[furo[3,4-c]quinoline-1,4′-pyran]-3-yl)-2-(trifluoromethyl)benzonitrile], for which the IC50 came to 65 nM.
Regarding `CC(C)c1nc2c(c3c1[C@@H](c1ccc(C(F)(F)F)nc1)OC31CCOCC1)[C@@H](O)CC(C)(C)[C@@H]2O` [5(7), (3R,6S,9S)-4-isopropyl-7,7-dimethyl-3-(6-(trifluoromethyl)pyridin-3-yl)-2′,3′,5′,6,6′,7,8,9-octahydro-3H-spiro[furo[3,4-c]quinoline-1,4′-pyran]-6,9-diol], the half-maximal inhibitory concentration (IC50) was found to be 4120 nM.
The value for `CC(C)c1nc2c(c3c1[C@@H](c1ccc(C4(C)COC4)cc1)OC31CCOCC1)[C@@H](O)CC(C)(C)C2` [1(64), (3R,9S)-4-isopropyl-7,7-dimethyl-3-(4-(3-methyloxetan-3-yl)phenyl)-2′,3′,5′,6,6′,7,8,9-octahydro-3H-spiro[furo[3,4-c]quinoline-1,4′-pyran]-9-ol] was 86 nM; that for `COCc1nc2c(c3c1[C@@H](c1ccc(C(F)(F)F)cc1)OC31CCOCC1)[C@@H](O)CC(C)(C)C2` [1(82), (3R,9S)-4-(methoxymethyl)-7,7-dimethyl-3-(4-(trifluoromethyl)phenyl)-2′,3′,5′,6,6′,7,8,9-octahydro-3H-spiro[furo[3,4-c]quinoline-1,4′-pyran]-9-ol] was 786 nM; that for `CC(C)c1nc2c(c3c1[C@@H](c1ccc(C(F)(F)F)c(C#N)c1)OC31CCOCC1)[C@@H](O)CC(C)(C)C2` [1(66), 5-((3R,9S)-9-hydroxy-4-isopropyl-7,7-dimethyl-2′,3′,5′,6,6′,7,8,9-octahydro-3H-spiro[furo[3,4-c]quinoline-1,4′-pyran]-3-yl)-2-(trifluoromethyl)benzonitrile] was 34 nM.
The value for `O[C@H]1CC2(CCC2)Cc2nc(C3CCOCC3)c3c(c21)C1(CCOCC1)O[C@@H]3c1ccc(C(F)(F)F)nc1` [1(78), (3R,9S)-7,7-(propan-1,3-diyl)-4-(tetrahydro-2H-pyran-4-yl)-3-(6-(trifluoromethyl)pyridin-3-yl)-2′,3′,5′,6,6′,7,8,9-octahydro-3H-spiro[furo[3,4-c]quinoline-1,4′-pyran]-9-ol] was 362 nM; that for `CC(C)c1nc2c(c3c1[C@@H](c1ccc(C(F)(F)F)cn1)OC31CCOCC1)[C@@H](O)CC1(CCC1)C2` [1(49), (3S,9S)-4-isopropyl-7,7-(propan-1,3-diyl)-3-(5-(trifluoromethyl)pyridin-2-yl)-2′,3′,5′,6,6′,7,8,9-octahydro-3H-spiro[furo[3,4-c]quinoline-1,4′-pyran]-9-ol] was 37 nM; that for `CC1(C)Cc2nc(C3CCOCC3)c3c(c2[C@@H](O)C1)C1(CCOCC1)O[C@@H]3c1ccc(C(F)(F)F)cn1` [1(73), (3S,9S)-7,7-dimethyl-4-(tetrahydro-2H-pyran-4-yl)-3-(5-(trifluoromethyl)pyridin-2-yl)-2′,3′,5′,6,6′,7,8,9-octahydro-3H-spiro[furo[3,4-c]quinoline-1,4′-pyran]-9-ol] was 1700 nM.
As for `CC(C)c1nc2c(c3c1[C@@H](c1ccc(C(F)(F)F)c(C#N)c1)OC31CCOCC1)[C@@H](O)CC(C)(C)[C@H]2O` [4(15), 5-((3R,6R,9S)-6,9-dihydroxy-4-isopropyl-7,7-dimethyl-2′,3′,5′,6,6′,7,8,9-octahydro-3H-spiro[furo[3,4-c]quinoline-1,4′-pyran]-3-yl)-2-(trifluoromethyl)benzonitrile], the IC50 worked out at 27 nM.
The value for `CC(C)c1nc2c(c3c1[C@@H](c1ccc(C(F)(F)F)cc1)OC31CCOCC1)[C@@H](O)CC1(CCCC1)C2` [1(57), (3R,9S)-4-isopropyl-7,7-(butan-1,4-diyl)-3-(4-(trifluoromethyl)phenyl)-2′,3′,5′,6,6′,7,8,9-octahydro-3H-spiro[furo[3,4-c]quinoline-1,4′-pyran]-9-ol] was 82 nM; that for `CC1(C)Cc2nc(C3CCOCC3)c3c(c2[C@@H](O)C1)C1(CCOCC1)O[C@@H]3c1ccc(C(F)(F)F)c(C#N)c1` [1(74), 5-((3R,9S)-9-hydroxy-7,7-dimethyl-4-(tetrahydro-2H-pyran-4-yl)-2′,3′,5′,6,6′,7,8,9-octahydro-3H-spiro[furo[3,4-c]quinoline-1,4′-pyran]-3-yl)-2-(trifluoromethyl)benzonitrile] was 100 nM.
Turning to `CC(C)c1nc2c(c3c1[C@@H](c1ccc(C(F)(F)F)cc1F)OC31CCOCC1)[C@@H](O)CC(C)(C)[C@@H]2O` [Example 6, (3S,6S,9S)-3-(2-fluoro-4-(trifluoromethyl)phenyl)-4-isopropyl-7,7-dimethyl-2′,3′,5′,6,6′,7,8,9-octahydro-3H-spiro[furo[3,4-c]quinoline-1,4′-pyran]-6,9-diol], the IC50 came to 410 nM.
The value for `CC(C)c1nc2c(c3c1[C@@H](c1ccc(C(F)(F)F)c(C#N)c1)OC31CCOCC1)[C@@H](O)CC1(CCC1)[C@H]2O` [4(10), 5-((3R,6R,9S)-6,9-dihydroxy-4-isopropyl-7,7-(propan-1,3-diyl)-2′,3′,5′,6,6′,7,8,9-octahydro-3H-spiro[furo[3,4-c]quinoline-1,4′-pyran]-3-yl)-2-(trifluoromethyl)benzonitrile] was 15 nM; that for `CC(C)c1nc2c(c3c1[C@@H](c1ccc(C(F)(F)F)nc1)OC31CCOCC1)[C@@H](O)CC1(CCC1)[C@H]2O` [Example 5, (3R,6R,9S)-4-isopropyl-7,7-(propan-1,3-diyl)-3-(6-(trifluoromethyl)pyridin-3-yl)-2′,3′,5′,6,6′,7,8,9-octahydro-3H-spiro[furo[3,4-c]quinoline-1,4′-pyran]-6,9-diol] was 13 nM; that for `CC(C)c1nc2c(c3c1[C@@H](c1ccc(C(F)(F)F)cc1F)OC31CCOCC1)[C@@H](O)CC(C)(C)C2` [1(55), (3S,9S)-3-(2-fluoro-4-(trifluoromethyl)phenyl)-4-isopropyl-7,7-dimethyl-2′,3′,5′,6,6′,7,8,9-octahydro-3H-spiro[furo[3,4-c]quinoline-1,4′-pyran]-9-ol] was 26 nM.
`CC(C)c1nc2c(c3c1[C@@H](c1ccc(C(F)(F)F)cc1F)OC31CCOCC1)[C@@H](O)CC(C)(C)[C@H]2O` [4(5), (3S,6R,9S)-3-(2-fluoro-4-(trifluoromethyl)phenyl)-4-isopropyl-7,7-dimethyl-2′,3′,5′,6,6′,7,8,9-octahydro-3H-spiro[furo[3,4-c]quinoline-1,4′-pyran]-6,9-diol]: the IC50 turned out to be 15 nM.
The value for `CC(C)c1nc2c(c3c1[C@@H](c1ccc(C(F)(F)F)nc1)OC31CCOCC1)[C@@H](O)CC(C)(C)C2` [1(47), (3R,9S)-4-isopropyl-7,7-dimethyl-3-(6-(trifluoromethyl)pyridin-3-yl)-2′,3′,5′,6,6′,7,8,9-octahydro-3H-spiro[furo[3,4-c]quinoline-1,4′-pyran]-9-ol] was 136 nM; that for `CC(C)c1nc2c(c3c1[C@@H](c1ccc(C(F)(F)F)cc1)OC31CCOCC1)[C@@H](O)CC(C)(C)[C@H]2O` [4(2), (3R,6R,9S)-4-isopropyl-7,7-dimethyl-3-(4-(trifluoromethyl)phenyl)-2′,3′,5′,6,6′,7,8,9-octahydro-3H-spiro[furo[3,4-c]quinoline-1,4′-pyran]-6,9-diol] was 25 nM.

Broadly, the IC50 is the point on the concentration scale where inhibition reaches its midpoint.
